From patent US7671057B2, “Therapeutic agent for type II diabetes comprising protease-inhibiting compound” (Ono Pharmaceutical Co., Ltd., priority 2004, dated 2010)
“Also recorded” adds a separate entry of the source.

Key:
KK-A^y/Ta Jcl mice [1] = assay: Weights of pancreas, liver and kidney at autopsy (Example 3); type: in vivo, mouse
Experimental: (§1) On Day 28 of administration of each compound in the form of an admixture with a food, furthermore, each animal after blood had been drawn from the tail vein was treated through individual forced oral administration of the Test Compound 2 in the form of the solutions individually consisting of 0.2, 0.6, 2.0 and 6.0 mg/mL-0.5% CMC suspension in each 5 mL/kg portion, as well as the Control Compound 1 in the form of the solutions individually consisting of 2.0 and 6 mg/mL-0.5% CMC suspension in each 5 ml/kg portion, followed by blood drawing 30 min. later and autopsy to thereby measure the weights of the pancreas, liver and kidney, whereby the control group was treated through administration of the 0.5% CMC suspension in the same portion.

KK-A^y/Ta Jcl mice [2] = assay: Blood-sugar level at satiety, dose-ranging food admixture up to Day 28 (Example 3); type: in vivo, mouse; conditions: for Blood-sugar level: end of the test (Day 28)
Experimental: KK-A^y/Ta Jcl Mice (male, 6-weeks aged, the number of cases; 8 animals) were treated through individual administration, in the form of an admixture with a food, of the Test Compound 2 (N-allyl-N-{(2E)-3-[4-({4-[amino(imino)methyl]phenoxy}-carbonyl)phenyl]-2-methyl-2-propenoyl}glycine/dimethanesulfonate) of the present invention at the daily doses of 0.56 mg, 1.68 mg, 5.6 mg and 16.8 mg/100 g-food, respectively, and the Control Compound 1 (5-{4-[2-(5-ethylpyridine-2-yl)-ethoxy]benzyl}-1,3-thiazolidine-2,4-dion; pioglitazone) at the daily doses of 5.6 mg and 16.8 mg/100 g-food, respectively, […], whereby the control group was fed with an ordinary food alone.
Blood was drawn from the tail vein individually on the day preceding to administration of each compound in the form of an admixture with a food, and on Days 6, 11, 16, 21 and 28 of administration.
(§2) The blood samples taken from the tail vein on the respective specified days after the administration were subjected to measurement of the blood-sugar level in accordance with the method as described in Example 1, while the plasma glucagon level after the forced oral administration performed on Days 28 was measured in accordance with the ELISA method as described in Example 1. Also, the glycosylated hemoglobin (HbA1c) and GLP-1 levels were determined in accordance with the latex coagulation method and the ELISA method (YK160, GLP-1 EIA Kit, produced by K.K. Yanaihara Kenkyu-sho of Japan), respectively, while the TG level was measured in accordance with the method as described in Example 1. The total pancreatic insulin content after oral administration of each compound was determined by adding 75% ethanol to the isolated pancreas as frozen, followed by homogenization, and collecting the insulin fraction through Sep-Pak (C18; WATER) treatment of the supernatant liquid produced by centrifugation, followed by determination with the ELIZA method.

KK-A^y/Ta Jcl mice [3] = assay: Plasma GLP-1, glucagon, blood-sugar, HbA1c and TG 30 min after forced oral administration on Day 28 (Example 3); type: in vivo, mouse
Experimental: as §1, §2

KK-A^y/Ta Jcl mice [4] = assay: Total pancreatic insulin content (Example 3); type: in vivo, mouse
Experimental: as §2

[5] = Body weight, administration as admixture with food (Example 2); type: in vivo, mouse
Experimental: (§3) KK-A^y/Ta Jcl Mice (male, 6- to 7-weeks aged, the number of cases; 8 animals) were treated through individual administration, in the form of an admixture with a food, of the Test Compound 2 (N-allyl-N-{(2E)-3-[4-({4-[amino(imino)methyl]phenoxy}-carbonyl)phenyl]-2-methyl-2-propenoyl}glycine/dimethane-sulfonate) of the present invention and the Control Compound 1 (5-(4-[2-(5-ethylpyridine-2-yl)ethoxy]benzyl)-1,3-thiazolidine-2,4-dione; pioglitazone) at the daily dose of 16.8 mg/100 g-food for 7 consecutive days, whereby the control group was fed with an ordinary food alone.
(§4) Blood was drawn from the tail vein individually on the day (Day 1) preceding to administration of the Test Compound in the form of an admixture with a food, and on Days 2, 5, 7 and 14 of administration, and the blood samples were subjected to measurement of the blood-sugar level in accordance with the same procedure as described in Example 1, while, at the same time, the animals were weighed.

[6] = target: leukotriene B4 (LTB4) receptor (Homo sapiens, UniProt Q15722); conditions: cited from earlier work
leukotriene B4 (LTB4) receptor, sequence (Q15722 whole entry): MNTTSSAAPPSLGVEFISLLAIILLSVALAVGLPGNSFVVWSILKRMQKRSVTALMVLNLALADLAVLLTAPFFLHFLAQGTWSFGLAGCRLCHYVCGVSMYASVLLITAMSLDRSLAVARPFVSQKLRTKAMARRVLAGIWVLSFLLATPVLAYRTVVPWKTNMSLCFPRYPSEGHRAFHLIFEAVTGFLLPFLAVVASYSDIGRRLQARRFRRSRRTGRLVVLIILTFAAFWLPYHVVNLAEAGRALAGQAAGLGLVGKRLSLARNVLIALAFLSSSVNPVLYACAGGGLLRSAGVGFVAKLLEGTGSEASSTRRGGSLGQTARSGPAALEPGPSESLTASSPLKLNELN

[7] = test system: pancreatic Langerhans' islets; assay: Histopathological analysis of the pancreas (Example 3); type: in vivo, mouse; conditions: Day 28
Experimental: Histopathological analysis of the pancreas (pathological analysis of the pancreatic Langerhans' islets (α-, β- and δ-cells) was carried out by embedding the tissue in paraffin, followed by thin slicing and respective staining through the Grimelius staining, Gomori's aldehyde-fuchsin staining and Hellman-Hellerstroem' staining.

KK-A^y/Ta Jcl mice [8] = assay: Blood-sugar level, administration as admixture with food (Example 2); type: in vivo, mouse
Experimental: as §3, §4

[9] = autopsy Day 28, Dose 0.56 (g/100 g-food)
[10] = autopsy Day 28, Dose 1.68 (g/100 g-food)
[11] = autopsy Day 28, Dose 16.8 (g/100 g-food)
[12] = day preceding administration (baseline), 16.8 mg/100 g-food group

What does the source list for `C=CCN(CC(=O)O)C(=O)/C(C)=C/c1ccc(C(=O)Oc2ccc(C(=N)N)cc2)cc1` [Test Compound 2, N-allyl-N-{(2E)-3-[4-({4-[amino(imino)methyl]phenoxy}-carbonyl)phenyl]-2-methyl-2-propenoyl}glycine/dimethane-sulfonate]?
Weight of the kidney (in words) (KK-A^y/Ta Jcl mice [1]; autopsy Day 28): suppressed from rising; Weight of the liver (in words) (KK-A^y/Ta Jcl mice [1]; autopsy Day 28): suppressed from rising; Weight of the pancreas (in words) (KK-A^y/Ta Jcl mice [1]; autopsy Day 28): increased; Weight Kidney (KK-A^y/Ta Jcl mice [1]; [9]): 0.47 ± 0.01 g; Weight Liver (KK-A^y/Ta Jcl mice [1]; [9]): 2.01 ± 0.08 g; Weight Pancreas (KK-A^y/Ta Jcl mice [1]; [9]): 0.342 ± 0.01 g; Weight Kidney (KK-A^y/Ta Jcl mice [1]; [10]): 0.49 ± 0.01 g; Weight Liver (KK-A^y/Ta Jcl mice [1]; [10]): 2.08 ± 0.07 g; Weight Pancreas (KK-A^y/Ta Jcl mice [1]; [10]): 0.41 ± 0.02 g; Weight Kidney (KK-A^y/Ta Jcl mice [1]; [11]): 0.41 ± 0.01 g; Weight Liver (KK-A^y/Ta Jcl mice [1]; [11]): 1.52 ± 0.06 g; Weight Pancreas (KK-A^y/Ta Jcl mice [1]; [11]): 0.45 ± 0.03 g; Time-course changes in blood-sugar level at satiety vs Control Group (in words, FIG. 1) (KK-A^y/Ta Jcl mice [2]; 5.6 mg/100 g group): significant drop in the blood-sugar level at the end of the test; Time-course changes in blood-sugar level at satiety vs Control Group (in words, FIG. 1) (KK-A^y/Ta Jcl mice [2]; 16.8 mg/100 g group): significant continued drops in the blood-sugar level; Blood-sugar level (KK-A^y/Ta Jcl mice [2]; Dose 0.56 (g/100 g-food)): 524.6 ± 47.3 mg/dL; Blood-sugar level (KK-A^y/Ta Jcl mice [2]; Dose 1.68 (g/100 g-food)): 620.9 ± 79.6 mg/dL; Blood-sugar level (KK-A^y/Ta Jcl mice [2]; Dose 5.6 (g/100 g-food)): 369.7 ± 39.6 mg/dL; Blood-sugar level (KK-A^y/Ta Jcl mice [2]; Dose 16.8 (g/100 g-food)): 251.2 ± 34.7 mg/dL; Change in HbA1C level (in words) (KK-A^y/Ta Jcl mice [3]): decreased; Change in TG level (in words) (KK-A^y/Ta Jcl mice [3]): decreased; Change in blood-sugar level (in words) (KK-A^y/Ta Jcl mice [3]): decreased; Change in plasma glucagon level (in words) (KK-A^y/Ta Jcl mice [3]): drops in the plasma glucagon level; Change in plasma GLP-1 level (in words) (KK-A^y/Ta Jcl mice [3]; 30 min after forced oral administration): plasma GLP-1 increasing effect; Total pancreatic insulin content (in words) (KK-A^y/Ta Jcl mice [4]; Day 28): increase in the total pancreatic insulin content; Total pancreatic insulin content (KK-A^y/Ta Jcl mice [4]; Day 28, Dose 1.68 (g/100 g-food)): 9.40 ± 2.24 µg; Total pancreatic insulin content (KK-A^y/Ta Jcl mice [4]; Day 28, Dose 5.6 (g/100 g-food)): 17.11 ± 2.76 µg; Body weight Day 2 ([5]; 16.8 mg/100 g-food admixture): 29.8 ± 0.7 g; Body weight Day 5 ([5]; 16.8 mg/100 g-food admixture): 30.6 ± 0.8 g; Body weight Day 7 ([5]; 16.8 mg/100 g-food admixture): 32.4 ± 1.0 g; Body weight Day 14 ([5]; 16.8 mg/100 g-food admixture): 34.6 ± 1.3 g; Body weight Day 1 [5, 12]: 30.6 ± 0.6 g; Effect on body weight (in words) ([5]; food admixture 16.8 mg/100 g-food, time course): not observed to produce any difference from the control group; also recorded: did not show any body-weight elevating actions; LTB4 receptor antagonistic action [6]: LTB4 antagonistic action; Number of pancreatic B-cells (postmortem findings) [7]: increase the number of pancreatic B-cells; Size of Langerhans' cells of the pancreatic islets (postmortem findings) [7]: enlarge the Langerhans' cells of the pancreatic islets; Blood-sugar level Day 2 (KK-A^y/Ta Jcl mice [8]; 16.8 mg/100 g-food admixture): 286.5 ± 58.3 mg/dL; Blood-sugar level Day 5 (KK-A^y/Ta Jcl mice [8]; 16.8 mg/100 g-food admixture): 314.8 ± 14.4 mg/dL; Blood-sugar level Day 7 (KK-A^y/Ta Jcl mice [8]; 16.8 mg/100 g-food admixture): 291.0 ± 5.1 mg/dL; Blood-sugar level Day 14 (KK-A^y/Ta Jcl mice [8]; 16.8 mg/100 g-food admixture): 248.0 ± 11.5 mg/dL; Blood-sugar level Day 1 (KK-A^y/Ta Jcl mice [8]; [12]): 300.0 ± 18.9 mg/dL; Blood-sugar lowering action (in words) (KK-A^y/Ta Jcl mice [8]; food admixture 16.8 mg/100 g-food, as from Day 5 afterwards): significant blood-sugar lowering action; also recorded: more potent blood-sugar lowering action
